Measurements as given in PubChem BioAssay AID2060889 (Molecular Pharmacology Branch, DTP, NCI, 2025).
pIC50: −log10 of the molar value. Each block holds one compound with its values, some of them ahead of it.

Tested on: LG0567-F671-PDC complex spheroids viability
Experiment: Anticancer human tumor LG0567-F671-PDC patient-derived lung adenocarcinoma cell line growth inhibition [RAS]
Conditions: for pIC50: curve of first compound; for viability, T/C: stronger effect = lower value
Summary of the method: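 Multi-cell-type spheroids: tumor cells plus HUVEC endothelial cells and mesenchymal stem cells. RAS-pathway inhibitors were combined with targeted agents, each dosed in half-log steps down from clinical Cmax, or from 10 microM when Cmax was unknown.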

[1] = second compound 0.0316 µM, first compound 0.0316 µM
[2] = second compound 0.0316 µM, first compound 0.1 µM
[3] = second compound 0.0316 µM, first compound 0.316 µM
[4] = second compound 0.0316 µM, first compound 1 µM
[5] = second compound 0.0316 µM, first compound 3.16 µM
[6] = second compound 0.0316 µM, first compound 10 µM
[7] = second compound 0.1 µM, first compound 0.0316 µM
[8] = second compound 0.1 µM, first compound 0.1 µM
[9] = second compound 0.1 µM, first compound 0.316 µM
[10] = second compound 0.1 µM, first compound 1 µM
[11] = second compound 0.1 µM, first compound 3.16 µM
[12] = second compound 0.1 µM, first compound 10 µM
[13] = second compound 0.316 µM, first compound 0.0316 µM
[14] = second compound 0.316 µM, first compound 0.1 µM
[15] = second compound 0.316 µM, first compound 0.316 µM
[16] = second compound 0.316 µM, first compound 1 µM
[17] = second compound 0.316 µM, first compound 3.16 µM
[18] = second compound 0.316 µM, first compound 10 µM
[19] = second compound 1 µM, first compound 0.0316 µM
[20] = second compound 1 µM, first compound 0.1 µM
[21] = second compound 1 µM, first compound 0.316 µM
[22] = second compound 1 µM, first compound 1 µM
[23] = second compound 1 µM, first compound 3.16 µM
[24] = second compound 1 µM, first compound 10 µM
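Further: spheroids exposed to compound for seven days before readout.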
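Wherever pIC50 is given: luminescence signal used as a proxy for viable cells.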

pIC50 (second compound 0.00316 µM): > 7.50
pIC50 (second compound 0.01 µM): > 7.50
pIC50 (second compound 0.0316 µM): > 7.50
pIC50 (second compound 0.1 µM): > 7.50
pIC50 (second compound 0.316 µM): > 7.50
pIC50 (second compound 1 µM): > 7.50
SMILES: CC(C)NCC(C(=O)N1CCN(c2ncnc3c2C(C)CC3O)CC1)c1ccc(Cl)cc1 (stereo unspecified) + C=CC(=O)N1CCN(c2nc(OCC3CCCN3C)nc3c(F)c(-c4nc(N)cc(C)c4C(F)(F)F)c(Cl)cc23)C(C)C1
viability, T/C (second compound 0.00316 µM, first compound 0.0316 µM): 16.6%
viability, T/C (second compound 0.00316 µM, first compound 0.1 µM): 18.9%
viability, T/C (second compound 0.00316 µM, first compound 0.316 µM): 14.9%
viability, T/C (second compound 0.00316 µM, first compound 1 µM): 10.8%
viability, T/C (second compound 0.00316 µM, first compound 3.16 µM): 10.3%
viability, T/C (second compound 0.00316 µM, first compound 10 µM): 9%
viability, T/C (second compound 0.01 µM, first compound 0.0316 µM): 17%
viability, T/C (second compound 0.01 µM, first compound 0.1 µM): 11.4%
viability, T/C (second compound 0.01 µM, first compound 0.316 µM): 10.8%
viability, T/C (second compound 0.01 µM, first compound 1 µM): 9.98%
viability, T/C (second compound 0.01 µM, first compound 3.16 µM): 8.68%
viability, T/C (second compound 0.01 µM, first compound 10 µM): 8.55%
viability, T/C [1]: 13.8%
viability, T/C [2]: 13.7%
viability, T/C [3]: 10.3%
viability, T/C [4]: 8.15%
viability, T/C [5]: 7.81%
viability, T/C [6]: 7.64%
viability, T/C [7]: 12.6%
viability, T/C [8]: 13.6%
viability, T/C [9]: 11.4%
viability, T/C [10]: 8.66%
viability, T/C [11]: 8.46%
viability, T/C [12]: 7.32%
viability, T/C [13]: 14.9%
viability, T/C [14]: 11.9%
viability, T/C [15]: 11.5%
viability, T/C [16]: 9.81%
viability, T/C [17]: 9.16%
viability, T/C [18]: 7.21%
viability, T/C [19]: 15.6%
viability, T/C [20]: 11.9%
viability, T/C [21]: 12.7%
viability, T/C [22]: 9.59%
viability, T/C [23]: 10%
viability, T/C [24]: 9.16%

pIC50 (second compound 0.0316 µM): 5.23
pIC50 (second compound 0.1 µM): 5.21
pIC50 (second compound 0.316 µM): 5.47
pIC50 (second compound 1 µM): > 7.50
pIC50 (second compound 3.16 µM): > 7.50
pIC50 (second compound 10 µM): > 7.50
SMILES: CC1(O)CCCC1n1c(=O)c(C(F)F)cc2cnc(NC3CCN(S(C)(=O)=O)CC3)nc21 (stereo unspecified) + C#Cc1c(F)ccc2cc(O)cc(-c3ncc4c(N5CC6CCC(C5)N6)nc(OCC56CCCN5CC(F)C6)nc4c3F)c12
viability, T/C [1]: 85.5%
viability, T/C [2]: 68.3%
viability, T/C [3]: 77.8%
viability, T/C [4]: 85.4%
viability, T/C [5]: 78.9%
viability, T/C [6]: 24.9%
viability, T/C [7]: 72.2%
viability, T/C [8]: 59.1%
viability, T/C [9]: 75.2%
viability, T/C [10]: 81.6%
viability, T/C [11]: 76.9%
viability, T/C [12]: 33.1%
viability, T/C [13]: 56.1%
viability, T/C [14]: 56.2%
viability, T/C [15]: 62.7%
viability, T/C [16]: 54.5%
viability, T/C [17]: 71.1%
viability, T/C [18]: 27.5%
viability, T/C [19]: 33.1%
viability, T/C [20]: 36.8%
viability, T/C [21]: 45.6%
viability, T/C [22]: 40%
viability, T/C [23]: 40.6%
viability, T/C [24]: 18.3%
viability, T/C (second compound 3.16 µM, first compound 0.0316 µM): 17.3%
viability, T/C (second compound 3.16 µM, first compound 0.1 µM): 23.6%
viability, T/C (second compound 3.16 µM, first compound 0.316 µM): 25.2%
viability, T/C (second compound 3.16 µM, first compound 1 µM): 29.3%
viability, T/C (second compound 3.16 µM, first compound 3.16 µM): 23.3%
viability, T/C (second compound 3.16 µM, first compound 10 µM): 14.6%
viability, T/C (second compound 10 µM, first compound 0.0316 µM): 14.2%
viability, T/C (second compound 10 µM, first compound 0.1 µM): 15.3%
viability, T/C (second compound 10 µM, first compound 0.316 µM): 17.8%
viability, T/C (second compound 10 µM, first compound 1 µM): 18.5%
viability, T/C (second compound 10 µM, first compound 3.16 µM): 14.7%
viability, T/C (second compound 10 µM, first compound 10 µM): 8.46%

pIC50 (second compound 0.000949 µM): > 7.50
pIC50 (second compound 0.003 µM): > 7.50
pIC50 (second compound 0.00949 µM): > 7.50
pIC50 (second compound 0.03 µM): > 7.50
pIC50 (second compound 0.0949 µM): > 7.50
pIC50 (second compound 0.3 µM): > 7.50
SMILES: CC(C)NCC(C(=O)N1CCN(c2ncnc3c2C(C)CC3O)CC1)c1ccc(Cl)cc1 (stereo unspecified) + CCn1c(-c2cccnc2C(C)OC)c2c3cc(ccc31)N1CCOC(CC(NC(=O)C(C(C)C)N(C)C(=O)C3(F)CCN(C(=O)C#CC(C)(C)N(C)C)CC3)C(=O)N3CCCC(N3)C(=O)OCC(C)(C)C2)C1
viability, T/C (second compound 0.000949 µM, first compound 0.0316 µM): 11.2%
viability, T/C (second compound 0.000949 µM, first compound 0.1 µM): 13.7%
viability, T/C (second compound 0.000949 µM, first compound 0.316 µM): 12.3%
viability, T/C (second compound 0.000949 µM, first compound 1 µM): 12.3%
viability, T/C (second compound 0.000949 µM, first compound 3.16 µM): 8.16%
viability, T/C (second compound 0.000949 µM, first compound 10 µM): 8.26%
viability, T/C (second compound 0.003 µM, first compound 0.0316 µM): 12.4%
viability, T/C (second compound 0.003 µM, first compound 0.1 µM): 11.7%
viability, T/C (second compound 0.003 µM, first compound 0.316 µM): 11.7%
viability, T/C (second compound 0.003 µM, first compound 1 µM): 10.8%
viability, T/C (second compound 0.003 µM, first compound 3.16 µM): 8.33%
viability, T/C (second compound 0.003 µM, first compound 10 µM): 7.72%
viability, T/C (second compound 0.00949 µM, first compound 0.0316 µM): 11%
viability, T/C (second compound 0.00949 µM, first compound 0.1 µM): 11.3%
viability, T/C (second compound 0.00949 µM, first compound 0.316 µM): 12.6%
viability, T/C (second compound 0.00949 µM, first compound 1 µM): 10.1%
viability, T/C (second compound 0.00949 µM, first compound 3.16 µM): 8.54%
viability, T/C (second compound 0.00949 µM, first compound 10 µM): 7.28%
viability, T/C (second compound 0.03 µM, first compound 0.0316 µM): 11.5%
viability, T/C (second compound 0.03 µM, first compound 0.1 µM): 10.2%
viability, T/C (second compound 0.03 µM, first compound 0.316 µM): 12.5%
viability, T/C (second compound 0.03 µM, first compound 1 µM): 8.64%
viability, T/C (second compound 0.03 µM, first compound 3.16 µM): 7.32%
viability, T/C (second compound 0.03 µM, first compound 10 µM): 7.5%
viability, T/C (second compound 0.0949 µM, first compound 0.0316 µM): 9.18%
viability, T/C (second compound 0.0949 µM, first compound 0.1 µM): 10.3%
viability, T/C (second compound 0.0949 µM, first compound 0.316 µM): 10.3%
viability, T/C (second compound 0.0949 µM, first compound 1 µM): 8.97%
viability, T/C (second compound 0.0949 µM, first compound 3.16 µM): 6.83%
viability, T/C (second compound 0.0949 µM, first compound 10 µM): 6.43%
viability, T/C (second compound 0.3 µM, first compound 0.0316 µM): 8.3%
viability, T/C (second compound 0.3 µM, first compound 0.1 µM): 10.2%
viability, T/C (second compound 0.3 µM, first compound 0.316 µM): 8.96%
viability, T/C (second compound 0.3 µM, first compound 1 µM): 6.59%
viability, T/C (second compound 0.3 µM, first compound 3.16 µM): 6.6%
viability, T/C (second compound 0.3 µM, first compound 10 µM): 5.25%
